The results in this text go back to patent US5100909A, “Acetylenic imidazoles having central nervous system activity” (The Upjohn Company, priority 1991, dated 1992).

Several values for one entry are separate records, joined by “and”; a condition that tells them apart may be missing. Equal entries are not always repeated. Where two headings read alike, the source gives them in different places. Some results are limits rather than exact numbers.

What is called Ki is a measure of affinity in units of concentration, obtained from inhibition or displacement.

Assay [1] deals with CNS cholinergic receptor. The class given is binding. As to conditions: for Ki ratio (Ki QNB/Ki oxotremorine M): QNB vs oxotremorine M binding; for cholinergic agonist / antagonist / partial agonist classification by Ki ratio: from Ki QNB/Ki oxotremorine M ratio; for Ki: tritiated quinuclidine benzylate, read-out: CNS Cholinergic Receptor Binding Assays Ki (nM) QNB.
Assay [2] has as its target CNS cholinergic receptor. The experiment in a line: Cholinergic receptor binding assay, tritiated oxotremorine M ligand. As to conditions: read-out: CNS Cholinergic Receptor Binding Assays Ki (nM) Oxotremorine.
Assay [3] has as its system HCl-induced writhing in CF1 mice. As to the kind of experiment: Analgesic activity, HCl writhing protection in mice. The class given is in vivo. As to conditions: Mus musculus, sc, 0.25 h, read-out: CNS Id (ED50 mg/kg) HCl Writh. Protect. Here is the method: For determination of analgesic activity, the test compound was injected subcutaneously into a group of four CF1 mice. Thirty minutes later the mice were injected i.p. with 0.15% HCl, 10 ml./kg. Mice are then placed in plastic boxes and observed for fifteen minutes to record the number of animals failing to writhe.
(In writhing tests, fewer writhes than in controls are read as antinociception.)

The subject of assay [4] is oxotremorine-induced body tremor in mice. The experiment in a line: Oxotremorine antagonist assay (body tremor) in mice. The class given is in vivo. To be noted: Mus musculus, ip, read-out: Oxot. Antagonist Tremor (ED50). How it is done: Oxotremorine antagonist assays were performed on groups of six mice weighing 18-22 g. Each was dosed intraperitoneally with the test compound prepared in 0.25% methylcellulose and were placed in individual cages. Twenty minutes later the mice were injected subcutaneously with 0.5 mg/kg of oxotremorine dissolved in saline. Ten minutes later the mice were scored for body tremor. Doses of the compound under study began at 100 mg/kg and were decreased at a 0.5 log interval until no responders were obtained.

[5] abbreviates: s.c. test compound, 30 min before 0.15% HCl i.p., CF1 mice.
Setting [6] is: i.p. test compound, 20 min before oxotremorine 0.5 mg/kg s.c., mice.

In the case of `Cc1nccn1CC#CCN1CCCC1=O` [Compound 2, 1-[4-(2-Methyl-1H-imidazol-1-yl)-2-butynyl]-2-pyrrolidinone], in assay [1], the “Ki ratio (Ki QNB/Ki oxotremorine M)” value is on record as below 10. For the same compound, the “cholinergic agonist / antagonist / partial agonist classification by Ki ratio” value in assay [1] was “cholinergic antagonists”. The Ki in assay [1] came to 3.8 nM; in assay [2] it was 0.3 nM. The ED50 was 0.1 mg/kg in assay [3] (setting [5]) and above 100 mg/kg in assay [4] (setting [6]).

Turning to `CC(=O)N(C)C(C)C#CCn1ccnc1` (stereo not shown) [Compound 14, N-[4-(1H-Imidazol-1-yl)-1-methyl-2-butynyl]-N-methylacetamide], the Ki in assay [1] is 1500 nM; in assay [2], 12 nM. For the same compound, the ED50 in assay [3] (setting [5]) is 0.9 mg/kg; in assay [4] (setting [6]), above 100 mg/kg.

With `CCN(CC)CC#CCn1ccnc1` [Compound 31, N,N-Diethyl-4-(1H-Imidazol-1-yl)-2-butyn-1-amine], in assay [2], the Ki is 10000 nM. Besides, the values for the ED50 in assay [3] and in assay [4] were above 50 mg/kg and above 100 mg/kg, respectively.

Regarding `Cc1cncn1CC#CCN1C(=O)CCC1=O` [Compound 11, 1-[4-(5-Methyl-1H-imidazol-1-yl)-2-butynyl]-2,5-pyrrolidinedione], the Ki in assay [1] amounted to 100 nM; in assay [2], 10.3 nM. Moreover, in assay [4], the ED50 stood at 37 mg/kg.

On to `COC(=O)N(C)CC#CCn1cncc1C` [Compound 27, Methyl [4-(5-methyl-1H-imidazol-1-yl)-2-butynyl]methyl carbamate], for which the Ki in assay [2] was determined as 200 nM. Further, the ED50 in assay [4] (setting [6]) was above 100 mg/kg.

For `O=C1CCC(=O)N1CC#CCn1ccnc1` [Compound 10, 1-[4-(1H-Imidazol-1-yl)-2-butynyl]-2,5-pyrrolidinedione], the Ki in assay [1] worked out at 634 nM; in assay [2] it was 23.5 nM. Further, in assay [4], the ED50 was 25 mg/kg.

For the compound `CCc1nccn1CC#CCN1CCCC1=O` [Compound 7, 1-[4-(2-Ethyl-1H-imidazol-1yl)-2-butynyl]-2-pyrrolidinone], the Ki in assay [1] was found to be 56.9 nM; in assay [2], 29.1 nM. For the same compound, the ED50 in assay [3] (setting [5]) was above 50 mg/kg; in assay [4] (setting [6]) it was 9.7 mg/kg.

Regarding `CC(C#CCn1ccnc1)N1CCCC1=O` (stereo not shown) [Compound 6, 1-[4-(1H-Imidazol-1-yl)-1-methyl-2-butynyl]-2-pyrrolidinone], the figures for the Ki in assay [1] and in assay [2] were 566 nM and 33.5 nM, respectively. Also, the ED50 in assay [3] (setting [5]) is above 50 mg/kg; in assay [4] (setting [6]), 45 mg/kg.

Regarding `Cc1cn(CC#CCN2CCCC2=O)cn1` [Compound 9, 1-[4-(4-Methyl-1H-imidazol-1-yl)-2-butynyl]-2-pyrrolidinone], the Ki was 377 nM in assay [1] and 10.3 nM in assay [2]. Moreover, in assay [4] (setting [6]), the ED50 is above 100 mg/kg.

In the case of `Cc1cn(CC#CCN2CCCC2=O)c(C)n1` [Compound 4, 1-[4-(2,4-Dimethyl-1H-imidazol-1-yl)-2-butynyl]-2-pyrrolidinone], the Ki was determined as 160 nM in assay [1] and 68 nM in assay [2]. Also, the ED50 is above 50 mg/kg in assay [3] and 54 mg/kg in assay [4] (setting [6]).

As for `Cc1cncn1CC#CCN1CCCC1=O` [Compound 3, 1-[4-(5-Methyl-1H-imidazol-1-yl)-2-butynyl]-2-pyrrolidinone], in assay [1], the “Ki ratio (Ki QNB/Ki oxotremorine M)” value is listed as “intermediate Ki ratios”; the “cholinergic agonist / antagonist / partial agonist classification by Ki ratio” value was “cholinergic partial agonists”; the Ki is 64 nM and 79.8 nM. Moreover, in assay [2], the Ki was 3.2 nM and 3.3 nM. Also, in assay [3] (setting [5]), the ED50 turned out to be 2.6 mg/kg.

For the compound `CC(=O)N(C)C(C)C#CCn1cc(C)nc1C` (stereo not shown) [Compound 17, N-[4-(2,4-Dimethyl-1H-imidazol-1-yl)-1-methyl-2-butynyl]-N-methylacetamide], the Ki was 180 nM in assay [1] and 130 nM in assay [2]. Besides, the ED50 in assay [3] (setting [5]) is above 50 mg/kg; in assay [4] (setting [6]), 80 mg/kg.

Take `Cc1cncn1CC#CCN1CCCC1` [Compound 32, 5-Methyl-1[(4-pyrrolidinyl)-2-butynyl]-1H-imidazole]: the Ki in assay [2] amounted to 436 nM. For the same compound, the ED50 in assay [4] is above 100 mg/kg.

For the compound `Cc1nccn1CC#CCN1CCCC1` [Compound 30, 2-Methyl-1-[4-(pyrrolidinyl)-2-butynyl]-1H-imidazole], the ED50 in assay [3] was 5 mg/kg; in assay [4], above 100 mg/kg.

Regarding `C(#CCN1CCCC1)CN1CCCC1` [Tremorine, reference compound], the Ki is 4600 nM in assay [1] and 370 nM in assay [2]. Further, in assay [4], the ED50 is above 100 mg/kg.

Regarding `CC(=O)NCC#CCn1ccnc1` [Compound 22, N-[4-(1H-Imidazol-1-yl)-2-butynyl]acetamide], the Ki in assay [2] was found to be 187 nM. Besides, in assay [4] (setting [6]), the ED50 was above 100 mg/kg.

Take `CC(=O)NCC#CCn1cncc1C` [Compound 23, N-[4-(5-Methyl-1H-imidazol-1-yl)-2-butynyl]acetamide]: the Ki in assay [2] was 213 nM. Also, the ED50 in assay [4] (setting [6]) is above 100 mg/kg.

Take `Cc1cncn1CC#CCN(C)C(=O)N(C)C` [Compound 25, [4-(5-Methyl-1H-imidazol-1-yl)-2-butynyl]trimethyl urea]: in assay [2], the Ki amounted to 82.1 nM. Further, the ED50 in assay [4] (setting [6]) was above 100 mg/kg.

With `CC1CCC(=O)N1CC#CCn1ccnc1` (stereo not shown) [Compound 5, 1-[4-(1H-Imidazol-1-yl)-2-butynyl]-5-methyl-2-pyrrolidinone], the values for the Ki in assay [1] and in assay [2] were 171 nM and 23 nM, respectively. The ED50 in assay [3] (setting [5]) is above 50 mg/kg; in assay [4] (setting [6]), 20.9 mg/kg.

With `CN(C)CC#CCn1ccnc1` [Compound 29, 4-(1H-Imidazol-1-yl)-N,N-dimethyl-2-butyn-1-amine], the Ki in assay [2] came to 10000 nM. For the same compound, the ED50 was above 50 mg/kg in assay [3] and above 100 mg/kg in assay [4].

Regarding `COC(=O)N(C)CC#CCn1ccnc1` [Compound 26, Methyl [4-(1H-imidazol-1-yl)-2-butynyl]methylcarbamate], the Ki in assay [2] was found to be 120 nM. For the same compound, the ED50 in assay [4] (setting [6]) is above 100 mg/kg.

As for `CC(=O)N(C)C(C)C#CCn1c(C)cnc1C` (stereo not shown) [Compound 18, N-[4-(2,5-Dimethyl-1H-imidazol-1-yl)-1-methyl-2butynyl]-N-methylacetamide], the Ki turned out to be 8.5 nM in assay [1] and 6.3 nM in assay [2]. For the same compound, the ED50 in assay [4] (setting [6]) was determined as 14.2 mg/kg.

Turning to `CC(=O)N(C)C(C)C#CCN1CCCC1` (stereo not shown) [BM-5, reference compound], the ED50 turned out to be 4.4 mg/kg in assay [3] (setting [5]) and 3.7 mg/kg in assay [4] (setting [6]).

On to `CC(=O)N(C)CC#CCn1cncc1C` [Compound 20, N-[4-(5-Methyl-1H-imidazol-1-yl)-2-butynyl]-N-methylacetamide], for which the Ki in assay [1] turned out to be 172 nM; in assay [2] it was 3.6 nM. For the same compound, the ED50 in assay [4] (setting [6]) is above 100 mg/kg.

Turning to `C(#CCn1ccnc1)CN1CCCC1` [Compound 28, 1-[4-(Pyrrolidinyl)-2-butynyl]-1H-imidazole], the ED50 is 3.1 mg/kg in assay [3] and above 100 mg/kg in assay [4].

As for `CC(=O)N(C)CC#CCn1ccnc1` [Compound 19, N-[4-(1H-Imidazol-1-yl)-2-butynyl]-N-methylacetamide], in assay [2], the Ki came to 1.9 nM. Further, in assay [4] (setting [6]), the ED50 was above 100 mg/kg.

For the compound `CC(=O)N(C)C(C)C#CCn1cnc(C)c1C` (stereo not shown) [Compound 16, N-[4-(4,5-Dimethyl-1H-imidazol-1-yl)-1-methyl-2-butynyl]-N-methylacetamide], the values for the Ki in assay [1] and in assay [2] were 79 nM and 42 nM, respectively. Further, the ED50 in assay [3] (setting [5]) is above 50 mg/kg; in assay [4] (setting [6]), 25.4 mg/kg.

For `Br.Cc1cncn1CC#CC(C)N1CCCC1=O` (stereo not shown) [Compound 12, 1-[4-(5-Methyl-1H-imidazol-1-yl)-1-methyl-2-butynyl]-2-pyrrolidinone hydrobromide], the Ki in assay [1] came to 16.8 nM; in assay [2], 5.2 nM. In addition, the ED50 in assay [4] (setting [6]) was found to be 25 mg/kg.

With `CC(=O)N(C)C(C)C#CCn1cncc1C` (stereo not shown) [Compound 21, N-[4(5-Methyl-1H-imidazol-1-yl)-1-methyl-2-butynyl]-N-methylacetamide], the Ki in assay [1] is 184 nM; in assay [2] it was 10 nM. In addition, in assay [4] (setting [6]), the ED50 was found to be 80 mg/kg.

As to `O=C1CCCN1CC#CCn1ccnc1Cl` [Compound 8, 1-[4-(2-Chloro-1H-imidazol-1-yl)-2-butynyl]-2-pyrrolidinone], the Ki in assay [2] was 577 nM. In addition, the ED50 in assay [4] (setting [6]) is above 100 mg/kg.

As to `Cc1cncn1CC#CCN1C(=O)CCC1C` (stereo not shown) [Compound 13], the Ki in assay [1] turned out to be 11.6 nM; in assay [2] it was 1.7 nM. Besides, the ED50 in assay [4] (setting [6]) is 14 mg/kg.

On to `O=C1CCCN1CC#CCn1ccnc1` [Compound 1, 1-[4-(1H-Imidazol-1-yl)-2-butynyl]-2-pyrrolidinone], for which, in assay [1], the “Ki ratio (Ki QNB/Ki oxotremorine M)” value is listed as above 100, the “cholinergic agonist / antagonist / partial agonist classification by Ki ratio” value was “cholinergic agonists” and the Ki was determined as 600 nM. In addition, the Ki in assay [2] was 1.3 nM. Also, the ED50 in assay [3] (setting [5]) turned out to be 0.4 mg/kg. Further, the ED50 in assay [4] is above 100 mg/kg.
